Measured values: US20040116501A1, “Treatment of nonallergic rhinitis by selective phosphodiesterase 4 inhibitors” (priority 2002, published 2004)
Read-outs that look alike come from different tables or passages of the source. Marks after values point to notes of the source that are not given here.

Tested on: acetic acid-induced vascular permeability of the rat nasal mucosa
Test: Acetic acid-induced vascular permeability in Sprague-Dawley rats (nonallergic rhinitis model), Evans Blue in nasal perfusate
Format: in vivo
Settings: for inhibition of the vascular permeability of the nasal mucosa (in words): test range from 0.1 to 10 μmol/l
Experimental: Effect on Acetic Acid-Induced Vascular Permeability in Sprague-Dawley Rats (Nonallergic Rhinitis Model)
Male Sprague-Dawley rats weighing 280-320 g are anesthetized on the day of the experiment by i.p. injection of 0.9-1 ml/animal of a 2.5% strength thiopental sodium solution. The trachea is then exposed below the epiglottis and incised at two points. A polyethylene catheter is pushed into the lower opening in the trachea in the direction of the lung (orthograde) and secured by tying with twine in order to maintain breathing. A second polyethylene catheter with LUER lock connector (cut from Original-Perfusor® line) for retrograde perfusion of the nasal cavity is introduced into the upper opening and advanced retrogradely as far as the inner opening of the choanae so that the solution can flow through the nasal cavity. 8 animals in total are placed individually on their backs on specially fabricated plastic tables in such a way that the perfusion fluid can drip out of the nostrils and be collected in the fraction collector.
During this, half of the head looks with the nose beyond the edge of the table.
A polyethylene infusion line is connected to the LUER lock connector of the catheter which has been secured retrogradely in each animal and is immersed in the container with the prepared perfusion fluid via a roller pump. The roller pump is adjusted to a constant delivery of 0.5 ml of fluid/min. A red lamp is switched on over the animals for warming.
Initial perfusion of the nasal cavity with PBS for 30 min serves to wash out the nasal mucus. During this, the fraction collector is switched on and the perfusate dripping out of the nostrils is collected in 15 min fractions (2 fractions). The second fraction is used as normal value for the experiment.
The test substances are administered topically before administration of acetic acid. They are added to the perfusion medium (PBS, Dulbecco) in molar concentrations. 4.6 mg of AWD 12-281 or other test substances such as AWD 12-322 or AWD 12-298 are diluted in accordance with their molecular weight (4.6 mg of AWD 12-322 or 5.2 mg of AWD 12-298) with 1 ml of 1N NaOH and then made up to 10 ml with double-distilled H2O. […] These solutions are perfused through the noses using the roller pump for 30 min, and the 2 samples obtained from the fraction collector are discarded. The roller pump is then switched off.
After perfusion with the substance, the plasma marker Evans Blue (1% strength solution in PBS) is injected, 1 ml per animal, into the jugular vein and then 0.1% strength acetic acid solution is forced through tubings and roller pumps into the nasal cavity until 2-3 drops of acetic acid solution drip from the conchae. The roller pumps are then switched off. The acetic acid solution is left in the nasal cavity for 30 minutes in order to ensure complete permeation of the nasal mucosa.
After an exposure time of 30 minutes, the roller pumps and the fraction collector are switched on again, and the 0.1% strength acetic acid solution in PBS is perfused retrogradely (with a constant delivery of 0.5 ml liquid/min) through the nasal cavity for 60 min. During this, the perfusate dripping out of the nostrils is continuously received in glass tubes and collected in 4 periods of 15 min. Aliquots of the samples including the control samples are placed on microtiter plates and measured using a Digiscan photometer at a wavelength of 620 nm relative to the control sample (blank). […] The Evans Blue content in 4 collected fractions, each selected over 15 minutes, of the perfusate flowing out in μg/ml is calculated by formula 1: [formula]
tn time interval (15 min)
yn Evans Blue content per time interval (μg/l per 15 min)
The means and standard deviations (x±SD) of the AUC′ for individual animals in a control group or a group of animals pretreated with substance are calculated. The inhibition of the vascular permeability is stated in percent.

[1] = test substance concentration 0.1 μmol/l, single 30-minute nasal perfusion before 0.1% acetic acid, rat
[2] = test substance concentration 1 μmol/l, single 30-minute nasal perfusion before 0.1% acetic acid, rat
[3] = test substance concentration 1 μmol/l, single 30-minute nasal perfusion before 0.1% acetic acid, rat, vs vehicle control
[4] = test substance concentration 3 μmol/l, single 30-minute nasal perfusion before 0.1% acetic acid, rat
[5] = test substance concentration 3 μmol/l, single 30-minute nasal perfusion before 0.1% acetic acid, rat, vs vehicle control
[6] = test substance concentration 10 μmol/l, single 30-minute nasal perfusion before 0.1% acetic acid, rat
[7] = test substance concentration 10 μmol/l, single 30-minute nasal perfusion before 0.1% acetic acid, rat, vs vehicle control
[8] = acetic acid-induced rhinitis in rats

Structure (SMILES)	Evans Blue content (μg/ml) in the perfusate AUC′ x ± SD [1] [µg/mL]	Evans Blue content (μg/ml) in the perfusate AUC′ x ± SD [2] [µg/mL]	% Inhibition [3]	Evans Blue content (μg/ml) in the perfusate AUC′ x ± SD [4] [µg/mL]	% Inhibition [5]	Evans Blue content (μg/ml) in the perfusate AUC′ x ± SD [6] [µg/mL]	% Inhibition [7]	inhibition of the vascular permeability of the nasal mucosa (in words) [8]	other results
C[C@H]1C[C@H]2[C@@H]3CCC4=CC(=O)C=C[C@]4(C)[C@@]3(Cl)[C@@H](O)C[C@]2(C)[C@@]1(O)C(=O)CO [Beclomethasone, beclomethasone, reference compound]	4.93 ± 3.19	0.93 ± 1.80	95** %	5.51 ± 7.12	68* %	4.86 ± 8.08	81** %		effect against the vascular plasma permeability induced by acetic acid in the nasal mucosa (in words) (rat rhinitis model, summary statement): dose-dependent effect; activity compared with the PDE4 inhibitors (in words) (standard therapeutic agents, acetic acid-induced rhinitis in rats): approximately the same activity; Evans Blue content (μg/ml) in the perfusate AUC′ x ± SD (test substance concentration 0.01 μmol/l, single 30-minute nasal perfusion before 0.1% acetic acid, rat): 10.70 ± 2.38 µg/mL; % Inhibition (test substance concentration 0.01 μmol/l, single 30-minute nasal perfusion before 0.1% acetic acid, rat, vs vehicle control): 38%; % Inhibition (test substance concentration 0.1 μmol/l, single 30-minute nasal perfusion before 0.1% acetic acid, rat, vs vehicle control): 72* %
O=C(Nc1c(Cl)cncc1Cl)C(=O)c1cn(Cc2ccc(O)cc2)c2ccc(O)cc12 [AWD 12-322, N-(3,5-dichloropyrid-4-yl)-2-[5-hydroxy-1-(4-hydroxybenzyl)-1H-indol-3-yl]glyoxylamide]	13.77 ± 6.65	7.25 ± 6.77				2.62 ± 3.44		concentration-dependent inhibition	inhibition at 0.1 µM (Rattus norvegicus, 0.5 h): 5%; inhibition at 1 µM (Rattus norvegicus, 0.5 h): 50%; inhibition at 10 µM (Rattus norvegicus, 0.5 h): 82%
O=C(Nc1c(Cl)cncc1Cl)C(=O)c1cn(Cc2ccc(F)cc2)c2ccc(O)cc12 [AWD 12-281, N-(3,5-dichloropyrid-4-yl)-[1-(4-fluorobenzyl)-5-hydroxyindol-3-yl]glyoxylamide]	10.88 ± 8.45	5.96 ± 7.97		6.41 ± 5.81		3.68 ± 4.40		concentration-dependent inhibition	inhibition at 0.1 µM (0.5 h, test substance concentration 0.1 μmol/l, single 30-minute nasal perfusion before 0.1% acetic acid, rat, vs vehicle control, read-out: % Inhibition): 29%; inhibition at 1 µM (0.5 h, test substance concentration 1 μmol/l, single 30-minute nasal perfusion before 0.1% acetic acid, rat, vs vehicle control, read-out: % Inhibition): 61%; inhibition at 3 µM (0.5 h, test substance concentration 3 μmol/l, single 30-minute nasal perfusion before 0.1% acetic acid, rat, vs vehicle control): 58%; inhibition at 10 µM (0.5 h, test substance concentration 10 μmol/l, single 30-minute nasal perfusion before 0.1% acetic acid, rat, vs vehicle control, read-out: % Inhibition): 76%
CCOC(C)=O.O=C(Nc1c(Cl)cncc1Cl)C(=O)c1cn(Cc2c(F)cccc2F)c2ccc(O)cc12.O=C(Nc1c(Cl)cncc1Cl)C(=O)c1cn(Cc2c(F)cccc2F)c2ccc(O)cc12 [AWD 12-298, N-(3,5-dichloropyrid-4-yl)-[1-(2,6-difluorobenzyl)-5-hydroxyindol-3-yl]glyoxylamide semi-ethyl acetate]		17.72 ± 9.31	0%	8.43 ± 5.56	49%	6.03 ± 7.11	64* %		activity in the model of acetic acid-induced rhinitis (in words) (concentration range from 3 to 10 μmol/l, rats): concentration-dependent activity
